Source: patent US20240174690A1, “ANNULATED 2-AMINO-3-CYANO THIOPHENES AND DERIVATIVES FOR THE TREATMENT OF CANCER” (BOEHRINGER INGELHEIM INTERNATIONAL GMBH, priority 2021, published 2024)
Read-outs that look alike come from different tables or passages of the source.

What was measured:
KRAS (WT)::SOS1 = KRAS (WT)::SOS1 (Homo sapiens (Human), UniProt P01116, C118S); assay: KRAS::SOS1 AlphaScreen binding assay, KRAS WT
Method in brief: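 AlphaScreen measurement of compound disruption of biotinylated, GDP-loaded KRAS 1-169 (10 nM; G12C 7.5 nM) binding to GST-SOS1 564-1049 (5 nM with G12D/G12C, 10 nM otherwise), with 10 μM GDP in PBS/0.1% BSA/0.05% Tween 20. Timing was 30 min compound preincubation, then 60 min with beads at room temperature; top concentration 100 μM, 4-parameter IC50.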

CYP3A4 = CYP3A4 (Homo sapiens (Human), UniProt P08684); assay: Mechanism based inhibition of CYP3A4 assay (MBI 3A4); assay type: in vitro ADME; details: hydroxy-midazolam formation after 30 min vs 0 min preincubation, 25 uM, human liver microsomes
Sequence of CYP3A4 (P08684 whole entry): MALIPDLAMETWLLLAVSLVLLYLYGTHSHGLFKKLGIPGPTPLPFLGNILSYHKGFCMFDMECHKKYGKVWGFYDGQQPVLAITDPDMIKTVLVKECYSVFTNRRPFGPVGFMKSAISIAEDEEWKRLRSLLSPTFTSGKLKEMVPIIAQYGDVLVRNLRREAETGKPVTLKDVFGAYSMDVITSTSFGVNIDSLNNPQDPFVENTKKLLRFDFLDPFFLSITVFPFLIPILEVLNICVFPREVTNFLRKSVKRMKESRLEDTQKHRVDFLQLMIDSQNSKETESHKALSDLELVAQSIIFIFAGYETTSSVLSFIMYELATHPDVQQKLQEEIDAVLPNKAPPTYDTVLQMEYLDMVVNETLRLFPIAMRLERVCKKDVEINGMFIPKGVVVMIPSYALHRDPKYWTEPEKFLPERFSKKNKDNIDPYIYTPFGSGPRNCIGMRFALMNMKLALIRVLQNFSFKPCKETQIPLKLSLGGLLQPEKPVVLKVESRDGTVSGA
Method in brief: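 Readout is hydroxy-midazolam formed after 30 min preincubation relative to 0 min, measured by LC/MS-MS after acetonitrile quench. Following preincubation, samples diluted 1:10 and incubated 15 min with midazolam substrate.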

MKN1 cells = assay: MKN1 CTG proliferation assay (120 h) (gastric cancer, wt amplified); assay type: cell-based
Method in brief: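 MKN1 gastric cancer cells (200–500 per well, RPMI + 10% FCS) given a logarithmic compound dose series and incubated 120 h. Viability by CellTiter-Glo luminescence as percent of DMSO controls. IC50 by four-parameter non-linear regression.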

[1] = Homo sapiens, MKN-1, assay 3, CTG 120 h, read-out: MKN1 (assay 3) IC50

Sequence of KRAS (WT)::SOS1 (P01116 other isoform, or with tags, fused parts or gaps C118S): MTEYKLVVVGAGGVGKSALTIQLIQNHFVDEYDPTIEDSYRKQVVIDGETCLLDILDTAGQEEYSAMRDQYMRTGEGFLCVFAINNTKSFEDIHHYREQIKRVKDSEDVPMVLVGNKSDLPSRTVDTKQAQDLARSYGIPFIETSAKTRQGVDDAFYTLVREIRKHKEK

SMILES: C[C@H](Oc1cc(N2CCN(C)C3(COC3)C2)nc(-c2onc3c2CCC[C@@]32CCCc3sc(N)c(C#N)c32)n1)[C@@H]1C[C@@H](F)CN1C [I-37]
- IC50 (KRAS (WT)::SOS1): 4 nM
- MBI 3A4 (CYP3A4): 45%

SMILES: C[C@H](Oc1cc(-c2ccn(C)n2)nc(-c2onc3c2CCC[C@@]32CCCc3sc(N)c(C#N)c32)n1)[C@@H]1CCCN1C [I-21]
- MBI 3A4 (CYP3A4): 40%
- IC50 (MKN1 cells; assay 3, CTG 120 h, read-out: MKN1 (assay 3) IC50): 149 nM

SMILES: C[C@H](Oc1cc(C2CCCO2)nc(-c2noc3c2CCC[C@@]32CCCc3sc(N)c(C#N)c32)n1)[C@@H]1CCCN1C (stereo partly drawn) [II-44]
- MBI 3A4 (CYP3A4): 71%

SMILES: C[C@H](Oc1nc(-c2noc3c2CCC[C@@]32CCCc3sc(N)c(C#N)c32)cc(N2C[C@H](C)N[C@@H](C)C2)n1)[C@@H]1CCCN1C [II-46]
- IC50 (KRAS (WT)::SOS1): 53 nM
- MBI 3A4 (CYP3A4): 91%

SMILES: CO[C@H]1CCN(C)[C@@H]1[C@H](C)Oc1cc(N2CCNC3(CC3)C2)nc(-c2onc3c2CCC[C@@]32CCCc3sc(N)c(C#N)c32)n1 [I-49]
- IC50 (MKN1 cells; Homo sapiens, MKN-1, assay 2, CTG 120 h, read-out: MKN1 (assay 2) IC50): 335 nM
- IC50 (MKN1 cells; [1]): 152 nM

SMILES: C[C@H](Oc1cc(-c2ccn(C)n2)nc(-c2noc3c2CCC[C@@]32CCCc3sc(N)c(C#N)c32)n1)[C@@H]1C[C@@H](F)CN1C [II-27]
- MBI 3A4 (CYP3A4): 71%
- IC50 (MKN1 cells; [1]): 116 nM

SMILES: CO[C@H]1CCN(C)[C@@H]1[C@H](C)Oc1cc(-n2ccc(C(=O)N[C@@H]3CCOC3)n2)nc(-c2onc3c2CCC[C@@]32CCCc3sc(N)c(C#N)c32)n1 [I-53]
- IC50 (MKN1 cells; [1]): 48 nM

SMILES: C[C@H](Oc1cc(N2CCNC3(CCC3)C2)nc(-c2onc3c2CCC[C@@]32CCCc3sc(N)c(C#N)c32)n1)[C@@H]1CCCN1C [I-3]
- IC50 (KRAS (WT)::SOS1): 7 nM
- MBI 3A4 (CYP3A4): 51%

SMILES: C[C@H](Oc1cc(-n2ccc(C(=O)N(C)C3COC3)n2)nc(-c2onc3c2CCC[C@@]32CCCc3sc(N)c(C#N)c32)n1)[C@@H]1CCCN1C [I-60]
- IC50 (MKN1 cells; [1]): 32 nM

SMILES: C[C@H](Oc1cc(-c2ccn(C[C@@H](C)O)n2)nc(-c2onc3c2CCC[C@@]32CCCc3sc(N)c(C#N)c32)n1)[C@@H]1CCCN1C [I-30]
- IC50 (KRAS (WT)::SOS1): 3 nM
- MBI 3A4 (CYP3A4): 77%

SMILES: C[C@H](Oc1cc(-c2cnsc2)nc(-c2onc3c2CCC[C@@]32CCCc3sc(N)c(C#N)c32)n1)[C@@H]1CCCN1C [I-27]
- MBI 3A4 (CYP3A4): 50%
- IC50 (MKN1 cells; [1]): 396 nM

SMILES: C[C@H](Oc1cc(N2C[C@@H](N(C)C)[C@@H](O)C2)nc(-c2noc3c2CCC[C@@]32CCCc3sc(N)c(C#N)c32)n1)[C@@H]1CCCN1C [II-10]
- MBI 3A4 (CYP3A4): 80%
- IC50 (MKN1 cells; [1]): 1260 nM

SMILES: COCCNC(=O)c1ccn(-c2cc(O[C@@H](C)[C@@H]3CCCN3C)nc(-c3onc4c3CCC[C@@]43CCCc4sc(N)c(C#N)c43)n2)n1 [I-58]
- IC50 (MKN1 cells; Homo sapiens, MKN-1, assay 1, CTG 120 h, read-out: MKN1 (assay 1) IC50): 25 nM
- IC50 (MKN1 cells; [1]): 17 nM

SMILES: C[C@H](Oc1cc(N2CCC(N(C)C)CC2)nc(-c2noc3c2CCC[C@@]32CCCc3sc(N)c(C#N)c32)n1)[C@@H]1CCCN1C [II-48]
- IC50 (KRAS (WT)::SOS1): 34 nM
- MBI 3A4 (CYP3A4): 84%

SMILES: C[C@H](Oc1cc(-n2ccc(C(=O)NC3COC3)n2)nc(-c2noc3c2CCC[C@@]32CCCc3sc(N)c(C#N)c32)n1)[C@@H]1CCCN1C [II-25]
- IC50 (KRAS (WT)::SOS1): 16 nM
- MBI 3A4 (CYP3A4): 77%

SMILES: CO[C@@H]1C[C@@H]([C@H](C)Oc2cc(-c3ccn(C)n3)nc(-c3onc4c3CCC[C@@]43CCCc4sc(N)c(C#N)c43)n2)N(C)C1 [I-23]
- MBI 3A4 (CYP3A4): 57%

SMILES: C[C@H](Oc1cc(N2CCN(C)C3(CC3)C2)nc(-c2onc3c2CCC[C@@]32CCCc3sc(N)c(C#N)c32)n1)[C@@H]1CCCN1C [I-41]
- IC50 (KRAS (WT)::SOS1): 5 nM
- MBI 3A4 (CYP3A4): 68%

SMILES: [2H]C([2H])([2H])N1C[C@H](F)C[C@H]1[C@H](C)Oc1cc(N2CCN(C)C3(CC3)C2)nc(-c2noc3c2CCC[C@@]32CCCc3sc(N)c(C#N)c32)n1 [II-209]
- IC50 (MKN1 cells; [1]): 670 nM

SMILES: C[C@H](Oc1cc(-c2ccn([C@H]3CCCOC3)n2)nc(-c2noc3c2CCC[C@@]32CCCc3sc(N)c(C#N)c32)n1)[C@@H]1CCCN1C [II-42]
- IC50 (KRAS (WT)::SOS1): 5 nM
- MBI 3A4 (CYP3A4): 63%

SMILES: C[C@H](Oc1cc(N2CCNC3(COC3)C2)nc(-c2noc3c2CCC[C@@]32CCCc3sc(N)c(C#N)c32)n1)[C@@H]1CCCN1C [II-31]
- MBI 3A4 (CYP3A4): 65%
- IC50 (MKN1 cells; [1]): 30 nM

SMILES: C[C@H](Oc1cc(-c2ccn(C[C@@H]3CCCO3)n2)nc(-c2noc3c2CCC[C@@]32CCCc3sc(N)c(C#N)c32)n1)[C@@H]1CCCN1C [II-43]
- MBI 3A4 (CYP3A4): 70%

SMILES: C[C@H](Oc1nc(-c2onc3c2CCC[C@@]32CCCc3sc(N)c(C#N)c32)cc(N2CCN(C)C3(CC3)C2)n1)[C@@H]1CCCN1C [I-40]
- MBI 3A4 (CYP3A4): 37%

SMILES: C[C@H](NC(=O)c1ccn(-c2cc(O[C@@H](C)[C@@H]3CCCN3C)nc(-c3onc4c3CCC[C@@]43CCCc4sc(N)c(C#N)c43)n2)n1)c1ccccn1 [I-59]
- IC50 (MKN1 cells; [1]): 26 nM

SMILES: C[C@H](Oc1cc(N2CCNC(C)(C)C2)nc(-c2noc3c2CCC[C@@]32CCCc3sc(N)c(C#N)c32)n1)[C@@H]1CCCN1C [II-32]
- MBI 3A4 (CYP3A4): 79%
